# Assays:
# [1] = system: renal cell carcinoma (RCC) cell lines; assay: XTT cell viability assay, RCC cell lines; assay type: cell-based; details: Homo sapiens, 48 h, mean of three cell lines
# Experimental: (§1) The […] (XTT) assays were performed as described previously. In summary, for GCT and fibroblast cell lines 5 × 10^3 cells (3 × 10^3 for UC, PCa and RCC cell lines) per 96-well were seeded and different drug concentrations (see Additional file 2: Fig. S2, Additional file 3: Fig. S3) or corresponding solvents were added to the cells the following day. For drug details see Additional file 12: Table S2 C. Each condition was analyzed in four technical replicates and EC50 values were calculated by GraphPad Prism v8.
# [2] = system: CC (choriocarcinoma) cell lines JAR, JEG-3, BeWo; assay: XTT cell viability assay, CC cell lines; assay type: cell-based; details: Homo sapiens; after 48 h, mean per entity
# Experimental: as §1
# [3] = system: prostate cancer (PCa) cell lines; assay: XTT cell viability assay, PCa cell lines; assay type: cell-based, Human; details: 48 h, mean of three cell lines
# Experimental: as §1
# [4] = system: urothelial carcinoma (UC) cell lines; assay: XTT cell viability assay, UC cell lines; assay type: cell-based, Human; details: 48 h, mean of three cell lines
# Experimental: as §1
# GCT cells = assay: Flow cytometry cell cycle (PI), GCT cells; assay type: cell-based, Human; details: EC50, 16 h
# Method in brief: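 Apoptosis: cells stained with Annexin V-FITC plus 15 µg PI in binding buffer, 15 min dark at room temperature. Cell cycle: cells fixed in ice-cold 70% ethanol, stained with 2 µg/ml PI and 200 µg/ml RNaseA in PBS. At least 5 × 10^4 cells counted by flow cytometry.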
# [5] = system: histone modifications in 2102EP cells; assay: Mass spectrometry analysis of histone modifications (Mod Spec); assay type: cell-based, Human
# Method in brief: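 2102EP cells were treated for 16 h with EC50 concentrations of Quisinostat, JIB-04, Chaetocin, MZ-1, LP99, PRT4165 or GSK343, with DMSO as solvent control. After trypsin harvest, histones were extracted and analysed by mass spectrometry. Raw data were converted to z-scores.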
# [6] = 2102EP cells, Mod Spec raw data
# [7] = 2102EP, EC50, 16 h, vs solvent control
compound,measurement,setting,value
Cn1cc(CNCC2CCN(c3ncc(C(=O)NO)cn3)CC2)c2ccccc21 [Quisinostat],EC50,[1],> 0.05 µM
same,EC50,[2],0.00694 µM
same,EC50,[3]; Homo sapiens,0.0222 µM
same,EC50,[3],0.0222 µM
same,EC50,[4]; Homo sapiens,0.0172 µM
same,EC50,[4],0.0172 µM
same,cell cycle phase accumulation in GCT cells,GCT cells,accumulation in the G2/M phase
same,"H1.4: K25AC, % of peptide pool",[5]; [6],0.02419%
same,"H1.4: K25ME1, % of peptide pool",[5]; [6],1.754%
same,"H1.4: K25ME2, % of peptide pool",[5]; [6],0.1017%
same,"H1.4: K25ME3, % of peptide pool",[5]; [6],0.01896%
same,"H1.4: K25UN, % of peptide pool",[5]; [6],98.1009%
same,"H2A1: K13AC, % of peptide pool",[5]; [6],0.02445%
same,"H2A1: K13UN, % of peptide pool",[5]; [6],99.9755%
same,"H2A1: K15AC, % of peptide pool",[5]; [6],0.008356%
same,"H2A1: K15UB, % of peptide pool",[5]; [6],0%
same,"H2A1: K15UN, % of peptide pool",[5]; [6],99.9916%
same,"H2A3: K13AC, % of peptide pool",[5]; [6],0.03116%
same,"H2A3: K13UN, % of peptide pool",[5]; [6],99.9688%
same,"H2A3: K15AC, % of peptide pool",[5]; [6],0.09989%
same,"H2A3: K15UB, % of peptide pool",[5]; [6],0%
same,"H2A3: K15UN, % of peptide pool",[5]; [6],99.9001%
same,"H2A: K5AC, % of peptide pool",[5]; [6],30.5025%
same,"H2A: K5UN, % of peptide pool",[5]; [6],69.4975%
same,"H2A: K9AC, % of peptide pool",[5]; [6],4.727%
same,"H2A: K9UN, % of peptide pool",[5]; [6],95.2735%
same,"H2A: K36AC, % of peptide pool",[5]; [6],0.03623%
same,"H2A: K36UN, % of peptide pool",[5]; [6],99.9638%
same,"H3: K9AC, % of peptide pool",[5]; [6],3.623%
same,"H3: K9ME1, % of peptide pool",[5]; [6],30.7914%
same,"H3: K9ME2, % of peptide pool",[5]; [6],27.5315%
same,"H3: K9ME3, % of peptide pool",[5]; [6],2.296%
same,"H3: K9UN, % of peptide pool",[5]; [6],35.7584%
same,"H3: K14AC, % of peptide pool",[5]; [6],58.3927%
same,"H3: K14UN, % of peptide pool",[5]; [6],41.6073%
same,"H3: K18AC, % of peptide pool",[5]; [6],38.2845%
same,"H3: K18ME1, % of peptide pool",[5]; [6],0.1021%
same,"H3: K18UN, % of peptide pool",[5]; [6],61.6134%
same,"H3: K23AC, % of peptide pool",[5]; [6],46.4415%
same,"H3: K23ME1, % of peptide pool",[5]; [6],0.02903%
same,"H3: K23UN, % of peptide pool",[5]; [6],53.5295%
same,"H3: K56AC, % of peptide pool",[5]; [6],0.1713%
same,"H3: K56ME1, % of peptide pool",[5]; [6],1.011%
same,"H3: K56UN, % of peptide pool",[5]; [6],98.8174%
same,"H3: K64AC, % of peptide pool",[5]; [6],0.03095%
same,"H3: K64UN, % of peptide pool",[5]; [6],99.9691%
same,"H3: K79AC, % of peptide pool",[5]; [6],0.6776%
same,"H3: K79ME1, % of peptide pool",[5]; [6],18.2028%
same,"H3: K79ME2, % of peptide pool",[5]; [6],5.702%
same,"H3: K79ME3, % of peptide pool",[5]; [6],13.4482%
same,"H3: K79UN, % of peptide pool",[5]; [6],61.9691%
same,"H3: K122AC, % of peptide pool",[5]; [6],0.1638%
same,"H3: K122UN, % of peptide pool",[5]; [6],99.8362%
same,"H3: Q19ME1, % of peptide pool",[5]; [6],0.00624%
same,"H3: Q19UN, % of peptide pool",[5]; [6],99.9938%
same,"H3: Q55ME1, % of peptide pool",[5]; [6],0.3096%
same,"H3: Q55UN, % of peptide pool",[5]; [6],99.6904%
same,"H3: R42ME2, % of peptide pool",[5]; [6],2.863%
same,"H3: R42UN, % of peptide pool",[5]; [6],97.1374%
same,"H3: R49ME2, % of peptide pool",[5]; [6],6.457%
same,"H3: R49UN, % of peptide pool",[5]; [6],93.5429%
same,"H3R2UN: K4AC, % of peptide pool",[5]; [6],0.2031%
same,"H3R2UN: K4ME1, % of peptide pool",[5]; [6],23.4933%
same,"H3R2UN: K4ME2, % of peptide pool",[5]; [6],0.2912%
same,"H3R2UN: K4ME3, % of peptide pool",[5]; [6],0.05363%
same,"H3R2UN: K4UN, % of peptide pool",[5]; [6],75.9587%
same,"H3R2UN: Q5ME1, % of peptide pool",[5]; [6],0.06645%
same,"H3R2UN: Q5UN, % of peptide pool",[5]; [6],99.9336%
same,"H3.1: K27AC, % of peptide pool",[5]; [6],8.049%
same,"H3.1: K27ME1, % of peptide pool",[5]; [6],45.2407%
same,"H3.1: K27ME2, % of peptide pool",[5]; [6],17.0794%
same,"H3.1: K27ME3, % of peptide pool",[5]; [6],2.551%
same,"H3.1: K27UN, % of peptide pool",[5]; [6],27.08%
same,"H3.1: K36AC, % of peptide pool",[5]; [6],0.2956%
same,"H3.1: K36ME1, % of peptide pool",[5]; [6],12.4481%
same,"H3.1: K36ME2, % of peptide pool",[5]; [6],50.5827%
same,"H3.1: K36ME3, % of peptide pool",[5]; [6],20.2944%
same,"H3.1: K36UN, % of peptide pool",[5]; [6],16.3791%
same,"H3.3: K27AC, % of peptide pool",[5]; [6],13.7879%
same,"H3.3: K27M, % of peptide pool",[5]; [6],0%
same,"H3.3: K27ME1, % of peptide pool",[5]; [6],42.1096%
same,"H3.3: K27ME2, % of peptide pool",[5]; [6],14.1824%
same,"H3.3: K27ME3, % of peptide pool",[5]; [6],5.8099%
same,"H3.3: K27UN, % of peptide pool",[5]; [6],24.1102%
same,"H3.3: K36AC, % of peptide pool",[5]; [6],4.027%
same,"H3.3: K36ME1, % of peptide pool",[5]; [6],9.936%
same,"H3.3: K36ME2, % of peptide pool",[5]; [6],52.9264%
same,"H3.3: K36ME3, % of peptide pool",[5]; [6],21.2958%
same,"H3.3: K36UN, % of peptide pool",[5]; [6],11.8156%
same,"H4: K5AC, % of peptide pool",[5]; [6],13.3396%
same,"H4: K5UN, % of peptide pool",[5]; [6],86.6604%
same,"H4: K8AC, % of peptide pool",[5]; [6],32.6787%
same,"H4: K8UN, % of peptide pool",[5]; [6],67.3213%
same,"H4: K12AC, % of peptide pool","[5]; 2102EP cells, Mod Spec raw data, histone H4 K12 acetylated",21.736 % of peptide pool
same,"H4: K12UN, % of peptide pool","[5]; 2102EP cells, Mod Spec raw data, histone H4 K12 unmodified",78.264 % of peptide pool
same,"H4: K16AC, % of peptide pool","[5]; 2102EP cells, Mod Spec raw data, histone H4 K16 acetylated",69.3546 % of peptide pool
same,"H4: K16UN, % of peptide pool","[5]; 2102EP cells, Mod Spec raw data, histone H4 K16 unmodified",30.6454 % of peptide pool
same,"H4: K20AC, % of peptide pool","[5]; 2102EP cells, Mod Spec raw data, histone H4 K20 acetylated",15.0365 % of peptide pool
same,"H4: K20ME2, % of peptide pool","[5]; 2102EP cells, Mod Spec raw data, histone H4 K20 dimethylated",57.6801 % of peptide pool
same,"H4: K20ME1, % of peptide pool","[5]; 2102EP cells, Mod Spec raw data, histone H4 K20 monomethylated",5.018 % of peptide pool
same,"H4: K20ME3, % of peptide pool","[5]; 2102EP cells, Mod Spec raw data, histone H4 K20 trimethylated",3.192 % of peptide pool
same,"H4: K20UN, % of peptide pool","[5]; 2102EP cells, Mod Spec raw data, histone H4 K20 unmodified",19.0735 % of peptide pool
same,change of histone modifications of the expected mode of action (Mod Spec),[5]; [7],strong accumulation of histone acetylation on histones H3 and H4
same,off-target changes of histone modifications (Mod Spec),[5]; [7],"increase in histone methylation (H3K4me1, H3.3K27me3, H3K56me1, H4K20me1/3)"

# Reference: paper PMC8742467, “Therapeutical interference with the epigenetic landscape of germ cell tumors: a comparative drug study and new mechanistical insights” (Clinical Epigenetics, 2022)
